Experimental data reported in US10124009B2, “Bromodomain inhibitors” (Tensha Therapeutics, Inc., priority 2014, dated 2018).

How the values were obtained:
[1] = IV and oral pharmacokinetics in male Sprague-Dawley rats; assay type: in vivo, rat; conditions: for exposures following IV administration: IV 1 mg/kg; for Extrapolated / Cmax / Tmax / half-life / AUC(0-inf) / AUC(0-t): rat plasma; for bioavailability / Cmax / Tmax / half-life / AUC(0-inf) / AUC(0-t): male, Sprague-Dawley; for bioavailability: rat, plasma, PO 5 mg/kg, read-out: oral bioavailability F
Protocol: Male Sprague-Dawley (˜250-325 g) with indwelling jugular vein cannulae (JVC) were purchased and allowed to acclimate to the test facility for a minimum of 2 days. All animals were fasted overnight prior to dosing. Oral formulations were prepared by weighing the appropriate amount of the compound into formulation vial and adding the appropriate volume of DMSO (10%), Solutol HS-15 (10%), and saline (80%) (See Table 0 for compound amounts and concentrations of all formulations). Once the test compound was in the vial, DMSO was added and the vial was vortexed for 1-2 minutes and sonicated for 3 minutes. The appropriate volume of Solutol HS-15 was then added to formulation vial and the vial was vortexed for 1-2 minutes and sonicated for 2 minutes. Saline was added and the pH adjusted to about 6.8-7.4, and the vial was vortexed for 2 minutes.
Oral dosing was performed using a ball-tipped gavage needle. […] No abnormalities were observed during the course of the study. Serial samples were collected by via tail snip, or facial vein. Blood samples were collected into NaF Na2EDTA tubes and stored on wet ice until processed to plasma by centrifugation (3500 rpm for 10 minutes at 5° C.) within 30 minutes of collection. Plasma samples were transferred into matrix tubes and stored at −80° C. until transferred to analytical chemistry for analysis. The cellular fraction was discarded. Dose formulation and plasma samples were analyzed for parent drug and metabolite by Agilux Laboratories via LC/MS/MS using an RGA I assay.

RIN-14B = assay: Cell Titer-Glo rat insulinoma cell assay, RIN-14B; assay type: cell-based; conditions: cell proliferation, 168-192 h culture
Protocol: (§1) A Cell Titer-Glo assay was utilized to test the sensitivity of four rat insulinoma (RIN) cell lines, RIN-14B, RIN-m5F, RIN-m, and RIN-5, to Compound 1 and Compound 2.
(§2) Cells were seeded at 5000 cells per well in a 96-well microculture plate in a total volume of 100 μl/well and incubated for 24 hours. 100 μl of 2× testing compounds (Compound 1 or Compound 2), serially diluted 1:4 were added to each well. The concentrations tested for Compound 1 and Compound 2 were 20 μM, 5 μM, 1.25 μM, 0.313 μM, 0.0781 μM, 0.0195 μM, 0.00488 μM, 0.00122 μM, 0.000305 μM, and 0.0000763 μM. After 168-192 total hours of culture 100 μl of media was removed from each well and 50 μl of Cell Titer-Glo (Promega #G7571) was added to each well. The plate was shaken for 2 minutes and allowed to equilibrate for 10 minutes. Luminescence was measured on a Tecan GENios microplate reader. Percent inhibition of cell proliferation was calculated relative to untreated control wells. All tests were performed in triplicate or quadruplicates at each concentration level. IC50 values were calculated using Prism 6.00 curve-fitting with a four parameter-logistic equation.

[2] = Caco-2 permeability assay; conditions: human; for recovery at 2 h, 10 μM: Caco-2; for Papp A→B at 2 h, 10 μM: Caco-2, Mean Papp, Assay Conc. 10 μM
BRD4(1) = BRD4(1) (Homo sapiens (Human), UniProt O60885); assay: BROMOscan binding assay BRD4(1)
Protocol: (§3) (S)-JQ (S8) was used as a positive control.
(§4) T7 phage strains displaying bromodomains were grown in parallel in 24-well blocks in an E. coli host derived from the BL21 strain. E. coli were grown to log-phase and infected with T7 phage from a frozen stock (multiplicity of infection=0.4) and incubated with shaking at 32° C. until lysis (90-150 minutes). The lysates were centrifuged (5,000×g) and filtered (0.2 μm) to remove cell debris. […] The liganded beads were blocked with excess biotin and washed with blocking buffer (SeaBlock (Pierce), 1% BSA, 0.05% Tween 20, 1 mM DTT) to remove unbound ligand and to reduce non-specific phage binding.
(§5) Test compounds were prepared as 1000× stocks in 100% DMSO and subsequently serially diluted 1:10 in monoethylene glycol (MEG) to create stocks at 100× the screening concentration (resulting stock solution is 10% DMSO/90% MEG). The compounds were then diluted directly into the assays such that the final concentration of DMSO and MEG were 0.1% and 0.9%, respectively. All reactions were performed in polystyrene 96-well plates in a final volume of 0.135 ml. […] The bromodomain concentration in the eluates was measured by qPCR.
(§6) Most Kds were determined using a compound top concentration=10,000 nM.
(§7) Binding constants (Kds) were calculated with a standard dose-response curve using the Hill equation. The Hill Slope was set to −1. Curves were fitted using a non-linear least square fit with the Levenberg-Marquardt algorithm. […] The amount of bromodomain was measured by qPCR (y-axis) and was plotted against the corresponding compound concentration in nM in log 10 scale.

RIN-m5F = assay: Cell Titer-Glo rat insulinoma cell assay, RIN-m5F; assay type: cell-based; conditions: cell proliferation, 168-192 h culture
Protocol: as §1, §2

BRD4(2) = BRD4(2) (Homo sapiens (Human), UniProt O60885); assay: BROMOscan binding assay BRD4(2)
Protocol: as §3, §4, §5, §6, §7

RIN-m = assay: Cell Titer-Glo rat insulinoma cell assay, RIN-m; assay type: cell-based; conditions: cell proliferation, 168-192 h culture
Protocol: as §1, §2

RIN-5F = assay: Cell Titer-Glo rat insulinoma cell assay, RIN-5F; assay type: cell-based; conditions: cell proliferation, 168-192 h culture
Protocol: as §1, §2

[3] = system: rat insulinoma (RIN) cell lines; assay: Cell Titer-Glo rat insulinoma cell assay, all four cell lines; assay type: cell-based; conditions: all cell lines (RIN-14B, RIN-m5F, RIN-m, RIN-5)
Protocol: as §1, §2

Caco-2 = Caco-2 permeability assay; conditions: Assay Conc. 10 μM
in vitro = conditions: human
[4] = PO Dose (5 mg/kg) vs IV (1 mg/kg)

Structure (SMILES)	exposures following IV administration [1]	Extrapolated ([1]; IV Dose (1 mg/kg)) [%]	bioavailability [1] [%]	Cmax ([1]; IV Dose (1 mg/kg)) [ng/mL]	Tmax ([1]; IV Dose (1 mg/kg)) [min]	half-life ([1]; IV Dose (1 mg/kg)) [min]	AUC(0-t) ([1]; PO Dose (5 mg/kg)) [ng·h/mL]	Cmax ([1]; PO Dose (5 mg/kg)) [ng/mL]	Tmax ([1]; PO Dose (5 mg/kg)) [min]	recovery at 2 h, 10 μM [2] [%]	Papp A→B at 2 h, 10 μM [2] [×10⁻⁶ cm/s]	Kd (BRD4(1)) [nM]	Kd values / in vitro binding activity to BRD4(1), in words (BRD4(1))	Kd (BRD4(2)) [nM]	Kd values / in vitro binding activity to BRD4(2), in words (BRD4(2))	AUC(0-inf) ([1]; IV Dose (1 mg/kg)) [ng·h/mL]	AUC(0-t) ([1]; IV Dose (1 mg/kg)) [ng·h/mL]	also measured
Cc1sc2c(c1C)C(c1ccc(Cl)cc1)=N[C@@H](CC(=O)OCC(C)O)c1nnc(C)n1-2 (stereo partly shown) [Compound 2]	detected	4.62	> 23	790	4.98	27.4	2720	820	60	95.3	30.6	1.9	low Kd values	1.9	low Kd values	–	–	F [1, 4]: 102.2%; AUC(0-inf) ([1]; PO Dose (5 mg/kg)): 3030 ng·h/mL; half-life ([1]; PO Dose (5 mg/kg)): 107 min; IC50 (RIN-14B): 26.5 nM; IC50 (RIN-m5F): 42.3 nM; IC50 (RIN-m): 41.5 nM; IC50 (RIN-5F; Rattus norvegicus): 64.5 nM; IC50 (RIN-5F): 59.9 nM; IC50 [3]: < 80 nM
Cc1sc2c(c1C)C(c1ccc(Cl)cc1)=N[C@@H](CC(=O)OCC(O)CO)c1nnc(C)n1-2 (stereo partly shown) [Compound 6]	–	–	–	–	–	–	–	–	–	90.8	4.74	–	–	–	–	–	–	–
CNC(=C[N+](=O)[O-])NCCSCc1ccc(CN(C)C)o1 [Ranitidine, reference compound]	–	–	–	–	–	–	–	–	–	–	–	–	–	–	–	–	–	Mean % recovery (Caco-2): 97.8%; Mean Papp, A-B (Caco-2; 2 hours): 0.170 10^−6 cm/s
Cc1sc2c(c1C)C(c1ccc(Cl)cc1)=N[C@@H](CC(=O)OC(C)(C)C)c1nnc(C)n1-2 [(S)-JQ1, reference compound]	–	–	–	–	–	–	–	–	–	84.6	35.4	–	–	–	–	–	–	–
CC(=O)CC(c1ccccc1)c1c(O)c2ccccc2oc1=O (stereo not shown) [Warfarin]	–	–	–	–	–	–	–	–	–	–	–	–	–	–	–	–	–	recovery at 2 h, 10 μM (in vitro; Caco-2): 99.9%; Papp A→B at 2 h, 10 μM (in vitro; Caco-2, Mean Papp, A-B): 38.8 ×10⁻⁶ cm/s
Cc1sc2c(c1C)C(c1ccc(Cl)cc1)=N[C@@H](CC(=O)OCCO)c1nnc(C)n1-2 [Compound 3]	–	–	–	–	–	–	–	–	–	88.7	29.8	1.1	low Kd values	1.2	low Kd values	–	–	–
Cc1sc2c(c1C)C(c1ccc(Cl)cc1)=N[C@@H](CC(=O)OC1CCC(O)CC1)c1nnc(C)n1-2 (stereo partly shown) [Compound 1]	detected	0.41	> 23	1490	4.98	47.9	2360	619	60	98.5	30.7	1.3	low Kd values	1.5	low Kd values	1500	1500	F* ([1]; PO Dose (5 mg/kg) vs IV (1 mg/kg), AUC0-last was used to calculate % F): 31.6%; IC50 (RIN-14B): 9.3 nM; IC50 (RIN-m5F): 11.3 nM; IC50 (RIN-m): 12.6 nM; IC50 (RIN-5F; Rattus norvegicus): 21.6 nM; IC50 (RIN-5F): 19.5 nM; IC50 [3]: < 40 nM
Cc1sc2c(c1C)C(c1ccc(Cl)cc1)=N[C@@H](CC(=O)OCCCO)c1nnc(C)n1-2 [Compound 4]	detected	0.28	> 23	1130	4.98	48.4	813	480	30	99.4	35.6	1.1	low Kd values	1.3	low Kd values	784	782	F [1, 4]: 23.4%; AUC(0-inf) ([1]; PO Dose (5 mg/kg)): 918 ng·h/mL; half-life ([1]; PO Dose (5 mg/kg)): 110 min
Cc1sc2c(c1C)C(c1ccc(Cl)cc1)=N[C@@H](CC(=O)OC/C(Br)=C(\Br)CO)c1nnc(C)n1-2 [Compound 7]	–	–	–	–	–	–	–	–	–	76.9	31.3	1.5	low Kd values	2.1	low Kd values	–	–	–
Cc1sc2c(c1C)C(c1ccc(Cl)cc1)=N[C@@H](CC(=O)OCCCCCCO)c1nnc(C)n1-2 [Compound 5]	detected	0.75	–	1070	4.98	18.1	12.1	12.2	30	88.7	39.9	–	low Kd values	0.4	low Kd values	516	512	–
